# Earlier results, collected in US11376263B2, “Cyproterone acetate compositions and uses thereof” (FORTRESS BIOTECH, INC., priority 2020, dated 2022).
# How the values were obtained:
# [1] = daily administration
Structure (SMILES),time to CPA steady state [1],AUC and Cmax in obese women versus normal weight women (obese vs normal weight women),"mean oral bioavailability (oral, large inter- and intraindividual variability)"
"CC(=O)O[C@]1(C(C)=O)CC[C@H]2[C@@H]3C=C(Cl)C4=CC(=O)[C@@H]5C[C@@H]5[C@]4(C)[C@H]3CC[C@@]21C [CPA, cyproterone acetate]",approximately 16 days,,
"C#C[C@]1(O)CC[C@H]2[C@@H]3CCc4cc(O)ccc4[C@H]3CC[C@@]21C [EE, ethinylestradiol]",,lower,approximately 45%
